Legend:
[1] = Displacement of [3H]DTG from sigma2 receptor in […]; assay type: cell-based; conditions: pc-12
[2] = biological target: D(2) dopamine receptor (Homo sapiens, UniProt P14416); experiment: Inhibition of D2 dopamine receptor
[3] = biological target: Sigma non-opioid intracellular receptor 1 (Rattus norvegicus, UniProt Q9R0C9); experiment: Displacement of [3H](+)-pentazocine from sigma1 receptor in rat brain homogenate; assay type: tissue-based
[4] = biological target: Sodium-dependent noradrenaline transporter (Homo sapiens) (UniProt P23975); experiment: Inhibition of NET at 10 uM
[5] = biological target: T1, Histamine H3 receptor (Homo sapiens, UniProt Q9Y5N1); experiment: Inhibition of H3 receptor at 10 uM
[6] = Inhibition of NMDA receptor PCP binding site at 10 uM
[7] = biological target: T2, Sodium-dependent dopamine transporter (Homo sapiens, UniProt Q01959); experiment: Inhibition of DAT at 10 uM
[8] = biological target: Sodium-dependent serotonin transporter (Homo sapiens, UniProt P31645); experiment: Inhibition of SERT
[9] = biological target: T2, Sodium-dependent dopamine transporter; experiment: Inhibition of DAT
[10] = system: PC-12; experiment: Displacement of [3H]DTG from sigma2 receptor in […] at 10 uM; assay type: cell-based
[11] = biological target: D(1B) dopamine receptor (Homo sapiens, UniProt P21918); experiment: Inhibition of D5 dopamine receptor at 10 uM
[12] = biological target: T1, Histamine H3 receptor; experiment: Inhibition of H3 receptor

T2 sequence (Q01959 whole entry): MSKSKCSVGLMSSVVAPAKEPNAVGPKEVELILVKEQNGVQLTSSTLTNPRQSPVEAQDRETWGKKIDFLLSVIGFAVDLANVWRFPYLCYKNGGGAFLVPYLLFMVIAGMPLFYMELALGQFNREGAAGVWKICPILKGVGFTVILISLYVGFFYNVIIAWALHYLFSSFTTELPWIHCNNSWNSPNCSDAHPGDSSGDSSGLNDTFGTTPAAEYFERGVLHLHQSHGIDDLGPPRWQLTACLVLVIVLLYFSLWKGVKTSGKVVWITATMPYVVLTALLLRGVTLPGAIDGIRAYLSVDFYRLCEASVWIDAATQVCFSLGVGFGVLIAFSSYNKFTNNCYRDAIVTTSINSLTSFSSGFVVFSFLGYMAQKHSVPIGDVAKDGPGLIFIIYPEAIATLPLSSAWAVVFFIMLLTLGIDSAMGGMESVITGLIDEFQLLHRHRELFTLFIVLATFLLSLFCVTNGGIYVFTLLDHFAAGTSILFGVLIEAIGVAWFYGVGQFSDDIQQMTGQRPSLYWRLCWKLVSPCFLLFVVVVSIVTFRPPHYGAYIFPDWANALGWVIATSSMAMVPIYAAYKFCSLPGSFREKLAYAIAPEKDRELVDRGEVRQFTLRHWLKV
D(2) dopamine receptor, sequence (P14416 whole entry): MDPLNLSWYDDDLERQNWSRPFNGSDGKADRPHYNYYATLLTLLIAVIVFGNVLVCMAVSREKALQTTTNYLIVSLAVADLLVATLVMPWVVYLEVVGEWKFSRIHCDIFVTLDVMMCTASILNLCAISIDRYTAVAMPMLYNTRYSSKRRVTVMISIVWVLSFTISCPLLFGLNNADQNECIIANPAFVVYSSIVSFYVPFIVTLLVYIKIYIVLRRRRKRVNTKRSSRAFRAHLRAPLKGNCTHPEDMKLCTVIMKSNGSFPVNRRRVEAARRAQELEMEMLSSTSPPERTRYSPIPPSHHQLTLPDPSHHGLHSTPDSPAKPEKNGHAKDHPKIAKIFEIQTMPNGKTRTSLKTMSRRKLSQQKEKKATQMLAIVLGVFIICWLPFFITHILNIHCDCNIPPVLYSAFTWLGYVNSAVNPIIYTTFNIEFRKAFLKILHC
T1 sequence (Q9Y5N1 whole entry): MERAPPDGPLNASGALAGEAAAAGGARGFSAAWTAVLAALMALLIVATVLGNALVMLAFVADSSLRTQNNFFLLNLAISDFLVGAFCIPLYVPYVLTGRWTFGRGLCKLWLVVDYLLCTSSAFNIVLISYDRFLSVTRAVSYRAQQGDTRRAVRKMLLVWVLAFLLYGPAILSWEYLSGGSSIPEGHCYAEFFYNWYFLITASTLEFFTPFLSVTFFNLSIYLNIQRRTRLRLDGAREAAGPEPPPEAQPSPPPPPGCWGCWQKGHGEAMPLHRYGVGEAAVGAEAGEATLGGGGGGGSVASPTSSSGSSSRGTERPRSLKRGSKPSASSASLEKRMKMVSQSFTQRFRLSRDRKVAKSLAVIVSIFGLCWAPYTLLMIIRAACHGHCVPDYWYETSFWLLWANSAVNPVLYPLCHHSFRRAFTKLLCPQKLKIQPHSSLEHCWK
Sodium-dependent serotonin transporter, sequence (P31645 whole entry): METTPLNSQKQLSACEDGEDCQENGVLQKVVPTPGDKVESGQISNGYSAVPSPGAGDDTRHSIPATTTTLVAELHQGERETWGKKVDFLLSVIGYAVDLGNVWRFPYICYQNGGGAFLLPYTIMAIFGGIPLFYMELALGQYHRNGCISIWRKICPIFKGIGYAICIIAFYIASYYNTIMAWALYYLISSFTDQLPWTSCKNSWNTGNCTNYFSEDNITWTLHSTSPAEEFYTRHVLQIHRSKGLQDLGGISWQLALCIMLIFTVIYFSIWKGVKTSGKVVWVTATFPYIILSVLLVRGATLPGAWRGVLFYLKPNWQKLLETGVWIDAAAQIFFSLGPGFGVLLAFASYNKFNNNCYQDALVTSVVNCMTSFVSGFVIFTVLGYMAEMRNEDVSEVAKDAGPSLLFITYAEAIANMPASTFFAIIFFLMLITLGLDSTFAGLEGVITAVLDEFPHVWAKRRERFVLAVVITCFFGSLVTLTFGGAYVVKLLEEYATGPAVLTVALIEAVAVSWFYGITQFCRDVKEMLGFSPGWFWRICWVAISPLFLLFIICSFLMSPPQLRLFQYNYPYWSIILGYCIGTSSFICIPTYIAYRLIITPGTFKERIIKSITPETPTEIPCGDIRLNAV
Sigma non-opioid intracellular receptor 1, sequence (Q9R0C9 whole entry): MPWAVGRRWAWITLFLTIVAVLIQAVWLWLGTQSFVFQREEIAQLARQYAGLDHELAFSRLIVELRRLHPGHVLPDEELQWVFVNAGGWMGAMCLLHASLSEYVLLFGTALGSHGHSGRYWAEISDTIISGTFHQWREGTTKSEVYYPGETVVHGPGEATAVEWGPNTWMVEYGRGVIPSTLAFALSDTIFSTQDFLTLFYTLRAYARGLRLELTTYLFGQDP
Sodium-dependent noradrenaline transporter (Homo sapiens), sequence (P23975 whole entry): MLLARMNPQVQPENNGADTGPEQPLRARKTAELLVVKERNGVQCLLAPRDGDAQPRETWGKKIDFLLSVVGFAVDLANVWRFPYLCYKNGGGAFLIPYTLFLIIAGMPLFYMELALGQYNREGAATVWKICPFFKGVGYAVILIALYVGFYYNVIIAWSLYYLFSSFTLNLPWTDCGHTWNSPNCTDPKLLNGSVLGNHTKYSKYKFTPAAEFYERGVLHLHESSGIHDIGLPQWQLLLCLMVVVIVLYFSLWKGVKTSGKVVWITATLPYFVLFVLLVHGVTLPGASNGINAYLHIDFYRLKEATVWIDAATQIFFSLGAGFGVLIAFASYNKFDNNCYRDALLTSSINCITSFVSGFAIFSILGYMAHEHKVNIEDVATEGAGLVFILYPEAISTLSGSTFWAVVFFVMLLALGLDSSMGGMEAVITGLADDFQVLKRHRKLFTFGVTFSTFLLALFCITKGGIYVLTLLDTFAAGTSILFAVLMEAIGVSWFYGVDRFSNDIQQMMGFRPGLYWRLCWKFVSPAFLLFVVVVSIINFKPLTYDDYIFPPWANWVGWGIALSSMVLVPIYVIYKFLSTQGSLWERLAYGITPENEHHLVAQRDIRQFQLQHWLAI
D(1B) dopamine receptor, sequence (P21918 whole entry): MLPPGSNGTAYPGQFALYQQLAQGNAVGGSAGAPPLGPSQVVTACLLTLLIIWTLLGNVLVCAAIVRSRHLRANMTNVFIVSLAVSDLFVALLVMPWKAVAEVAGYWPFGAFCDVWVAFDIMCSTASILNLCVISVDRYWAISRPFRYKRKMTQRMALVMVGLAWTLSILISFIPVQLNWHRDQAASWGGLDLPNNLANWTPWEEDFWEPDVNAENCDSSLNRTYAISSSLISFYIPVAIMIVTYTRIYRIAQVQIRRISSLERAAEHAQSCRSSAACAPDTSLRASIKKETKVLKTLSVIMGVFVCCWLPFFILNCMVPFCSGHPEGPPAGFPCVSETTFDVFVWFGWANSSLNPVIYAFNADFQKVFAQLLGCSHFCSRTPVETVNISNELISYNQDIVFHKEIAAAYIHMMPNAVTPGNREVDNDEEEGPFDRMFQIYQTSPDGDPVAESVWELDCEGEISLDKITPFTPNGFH

inhibition [11]	Compound	Ki [1]	Ki [2]	Ki [3]	inhibition [4]	inhibition [5]	inhibition [6]	inhibition [7]	Ki [8]	Ki [9]	inhibition [10]	Ki [12]
–	c1ccc(CCN2C3CCC2CC3)nc1	517 nM	> 10 µM	3830 nM	< 50%	< 50%	< 50%	< 50%	–	–	–	–
–	Fc1cccc(CCCN2C3CCC2CC3)c1	11.9 nM	> 10 µM	120 nM	< 50%	< 50%	< 50%	< 50%	–	–	–	–
–	COc1ccc(CN2CCCC2)cc1OC	661 nM	–	–	< 50%	–	< 50%	< 50%	> 10 µM	–	–	–
–	c1cncc(CN2C3CCC2CC3)c1	6350 nM	> 10 µM	–	< 50%	< 50%	< 50%	< 50%	–	–	–	–
–	Fc1cccc(CCCN2CCCC2)c1	39 nM	9.91 µM	–	< 50%	–	< 50%	–	4.36 µM	3310 nM	–	–
–	c1cncc(CN2CCCC2)c1	–	–	–	< 50%	–	< 50%	< 50%	> 10 µM	–	< 50%	–
–	c1ccc(CN2C3CCC2CC3)cc1	399 nM	> 10 µM	–	< 50%	–	< 50%	< 50%	> 10 µM	–	–	–
–	COc1ccc(CN2C3CCC2CC3)cc1OC	43.1 nM	> 10 µM	–	< 50%	< 50%	< 50%	< 50%	> 10 µM	–	–	–
–	Fc1cccc(CCN2C3CCC2CC3)c1	29.5 nM	> 10 µM	103 nM	< 50%	< 50%	< 50%	< 50%	–	–	–	–
< 50%	c1ccc(CN2CCCC2)cc1	852 nM	–	–	< 50%	–	< 50%	< 50%	> 10 µM	–	–	–
–	Fc1cccc(CN2CCCC2)c1	1610 nM	–	–	< 50%	–	< 50%	< 50%	> 10 µM	–	–	–
–	c1ccc(CCN2CCCC2)cc1	658 nM	–	–	< 50%	–	< 50%	–	> 10 µM	2730 nM	–	–
–	c1ccc(CCN2C3CCC2CC3)cc1	131 nM	> 1 µM	276 nM	< 50%	–	< 50%	< 50%	–	–	–	7.77 µM
–	Fc1cccc(CN2C3CCC2CC3)c1	251 nM	> 10 µM	–	< 50%	< 50%	< 50%	< 50%	> 10 µM	–	–	–
–	Fc1cccc(CCN2CCCC2)c1	246 nM	> 10 µM	–	< 50%	–	< 50%	–	> 10 µM	2310 nM	–	–
–	c1ccc(CCN2CCCC2)nc1	3520 nM	> 10 µM	–	< 50%	–	< 50%	< 50%	> 10 µM	–	–	–

— ChEMBL document CHEMBL2029272, “7-Azabicyclo[2.2.1]heptane as a scaffold for the development of selective sigma-2 (σ2) receptor ligands” (Bioorg Med Chem Lett, 2012)
